In US9462805B2, “Herbicide-resistant proteins, encoding genes, and uses thereof” (Beijing Dabeinong Technology Group Co., Ltd., priority 2012, dated 2016):

Key:
[1] = test system: corn plants transfected with control nucleotide sequence; experiment: Herbicide-resistance effect test of corn plants (control sequence; strains S10, S11); assay type: in vivo, maize; details: 8960 g ae/ha sprayed, 21 days after spraying; for Abnormal development of prop roots / Normal development of prop roots: number of plants
Procedure: Herbicide resistance effects tests to 2,4-D dimethyl ammonium salt and agroxone of maize plants containing 24DT02 nucleotide sequence, 24DT02 substituted nucleotide sequence, 24DT02 truncated nucleotide sequence, 24DT02 added nucleotide sequence, control nucleotide sequence respectively and wild type maize plants (stages V3-V4) were performed respectively.
Maize plants containing 24DT02 nucleotide sequence, 24DT02 substituted nucleotide sequence, 24DT02 truncated nucleotide sequence, 24DT02 added nucleotide sequence, control nucleotide sequence respectively and wild type maize plants were taken and spayed with 2,4-D dimethyl ammonium salt (8960 g ae/ha, 16-folds concentration in field), agroxone (8960 g ae/ha, 16-folds concentration in field) and blank solvent (water) respectively. Prop root development was counted 21 days after spaying. Three strains (S1, S2, and S3) of corn plants transfected with 24DT02 nucleotide sequence, two strains (S4 and S5) of corn plants transfected with 24DT02 substituted nucleotide sequence, two strains (S6 and S7) of corn plants transfected with 24DT02 truncated nucleotide sequence, two strains (S8 and S9) of corn plants transfected with 24DT02 added nucleotide sequence, two strains (S10 and S11) of corn plants transfected with control nucleotide sequence and 1 strain of wild type (CK) corn were selected and 10-15 plants from each stain were tested.

[2] = test system: Arabidopsis; experiment: Effective dose distinguishing sensitive from resistant Arabidopsis; assay type: in vivo
[3] = test system: Arabidopsis T1 plants transformed with added 24DT02 nucleotide sequence; experiment: Herbicide resistance effect test of transgenic Arabidopsis T1 plants (24DT02-a); assay type: in vivo, Arabidopsis thaliana; details: number of T1 plants, genotype 24DT02-a, 560 g ae/ha sprayed; for Moderately resistant: curly rosette leaves 7 days after spraying; for Non-resistant: dead 14 days after spraying; for Highly resistant: growth consistent with blank solvent 7 days after spraying; for Lowly resistant: incapable of bolting 14 days after spraying
Procedure: (§1) On 7 days after planting (DAP) and 11 DAP respectively, the T1 plants (cotyledon stage and 2-4 leaves stage, respectively) were sprayed with 0.2% of Liberty herbicide solution (200 g ai/L glufosinate-ammonium) using DeVilbiss compressed air nozzle at a spraying volume of 10 ml/disc (703 L/ha) so as to provide effective amount of glufosinate-ammonium (280 g ai/ha) for each application. The survival plants (actively growing plants) were verified 4 to 7 days after the last spraying and transferred into the square pot (7 cm×7 cm) made from vermiculite and horses dung (3-5 plants per pot). The transplanted plants were covered with moisturizing mask for 3-4 days and placed in culture room at 22° C. or directly into the greenhouse as described above. Then the mask was removed and the plants were planted in greenhouse (22±5° C., 50±30% RH, 14 hours of lighting: 10 hours of darkness, minimum […] natural light+complement light) at least one day before testing the ability of 24DT02 to provide the resistance to phenoxy auxin herbicide.
(§2) 24DT02 gene was used to transform Arabidopsis for the first time. At first, T1 transformants were selected from the background of un-transformed seeds, using glufosinate-ammonium selection scheme. About 40000 T1 seeds were screened among which 195 strains of T1 generation positive transformants (PAT gene) were identified, i.e. the transformation efficiency was about 0.5%. Herbicide resistance effect tests to 2,4-D dimethyl ammonium salt and agroxone of Arabidopsis T1 plants transformed with 24DT02 nucleotide sequence, substituted 24DT02 nucleotide sequence, truncated 24DT02 nucleotide sequence, added 24DT02 nucleotide sequence, control nucleotide sequence respectively and wild-type Arabidopsis plants were performed after 18 days of planting.
(§3) Arabidopsis T1 plants transformed with 24DT02 nucleotide sequence, substituted 24DT02 nucleotide sequence, truncated 24DT02 nucleotide sequence, added 24DT02 nucleotide sequence and control nucleotide sequence respectively and wild-type Arabidopsis plants were sprayed with 2,4-D dimethyl ammonium salt (560 g ae/ha, 1-fold concentration in field), agroxone (560 g ae/ha, 1-fold concentration in field) and blank solvent (water). Resistance conditions of the plants were counted 7 days and 14 days after spraying. Plants with growth conditions consistent with blank solvent (water) 7 days after spaying were classified as highly resistant plants; Plants with curly rosette leaves 7 days after spaying were classified as moderately resistant plants; Plants incapable of bolting 14 days after spaying were classified as low-resistant plants and the dead plants 14 days after spaying were classified as non-resistant plants. Because each Arabidopsis T1 plant was an independent transformation event, significant differences of individual T1 responses were expected under a given dose.

[4] = test system: wild-type Arabidopsis plants; experiment: Herbicide resistance effect test of wild-type Arabidopsis plants; assay type: in vivo, Arabidopsis thaliana; details: number of plants, genotype Wild, 560 g ae/ha sprayed; for Moderately resistant: curly rosette leaves 7 days after spraying; for Non-resistant: dead 14 days after spraying; for Highly resistant: growth consistent with blank solvent 7 days after spraying; for Lowly resistant: incapable of bolting 14 days after spraying
Source text: 24DT02 gene was used to transform Arabidopsis for the first time. At first, T1 transformants were selected from the background of un-transformed seeds, using glufosinate-ammonium selection scheme. About 40000 T1 seeds were screened among which 195 strains of T1 generation positive transformants (PAT gene) were identified, i.e. the transformation efficiency was about 0.5%. Herbicide resistance effect tests to 2,4-D dimethyl ammonium salt and agroxone of Arabidopsis T1 plants transformed with 24DT02 nucleotide sequence, substituted 24DT02 nucleotide sequence, truncated 24DT02 nucleotide sequence, added 24DT02 nucleotide sequence, control nucleotide sequence respectively and wild-type Arabidopsis plants were performed after 18 days of planting. Arabidopsis T1 plants transformed with 24DT02 nucleotide sequence, substituted 24DT02 nucleotide sequence, truncated 24DT02 nucleotide sequence, added 24DT02 nucleotide sequence and control nucleotide sequence respectively and wild-type Arabidopsis plants were sprayed with 2,4-D dimethyl ammonium salt (560 g ae/ha, 1-fold concentration in field), agroxone (560 g ae/ha, 1-fold concentration in field) and blank solvent (water). Resistance conditions of the plants were counted 7 days and 14 days after spraying. Plants with growth conditions consistent with blank solvent (water) 7 days after spaying were classified as highly resistant plants; Plants with curly rosette leaves 7 days after spaying were classified as moderately resistant plants; Plants incapable of bolting 14 days after spaying were classified as low-resistant plants and the dead plants 14 days after spaying were classified as non-resistant plants. Because each Arabidopsis T1 plant was an independent transformation event, significant differences of individual T1 responses were expected under a given dose.

[5] = test system: Arabidopsis T1 plants transformed with control nucleotide sequence; experiment: Herbicide resistance effect test of Arabidopsis T1 plants (control sequence); assay type: in vivo, Arabidopsis thaliana; details: number of T1 plants, 560 g ae/ha sprayed; for Highly resistant: genotype Control (control sequence), growth consistent with blank solvent 7 days after spraying; for Moderately resistant / Non-resistant / Lowly resistant: genotype Control; for Moderately resistant: curly rosette leaves 7 days after spraying; for Non-resistant: dead 14 days after spraying; for Lowly resistant: incapable of bolting 14 days after spraying
Procedure: as §1, §2, §3

[6] = corn strain S10 (control sequence)
[7] = corn strain S11 (control sequence)

## Cc1cc(Cl)ccc1OCC(=O)O [agroxone]
[1]; [6]
  Ratio of the normally developed prop roots: 0%
  Abnormal development of prop roots: 10
  Normal development of prop roots: 0
[1]; [7]
  Ratio of the normally developed prop roots: 0%
  Abnormal development of prop roots: 10
  Normal development of prop roots: 0
[2]
  effective dose to distinguish the sensitive plants from plants with average resistance: 50 g ae/ha
[3]
  Moderately resistant: 5
  Non-resistant: 3
  Highly resistant: 8
  Lowly resistant: 1
[4]
  Moderately resistant: 0
  Non-resistant: 16
  Highly resistant: 0
  Lowly resistant: 0
[5]
  Highly resistant: 0
  Moderately resistant: 0
  Non-resistant: 17
  Lowly resistant: 0

## CNC.O=C(O)COc1ccc(Cl)cc1Cl [2,4-D dimethyl ammonium salt]
[1]; [6]
  Ratio of the normally developed prop roots: 0%
  Abnormal development of prop roots: 10
  Normal development of prop roots: 0
[1]; [7]
  Ratio of the normally developed prop roots: 0%
  Abnormal development of prop roots: 11
  Normal development of prop roots: 0
[3]
  Moderately resistant: 3
  Non-resistant: 3
  Highly resistant: 10
  Lowly resistant: 2
[4]
  Moderately resistant: 0
  Non-resistant: 20
  Highly resistant: 0
  Lowly resistant: 0
[5]
  Highly resistant: 0
  Moderately resistant: 0
  Non-resistant: 18
  Lowly resistant: 0
